Measurements: patent publication US9969744B2, “Compounds for use in cognition improvement” (FUNDACIÓN PARA LA INVESTIGACIÓN MÉDICA APLICADA, priority 2014, dated 2018)

Tests used:
PDE9A = molecular target: T1, PDE9A (Homo sapiens, UniProt O76083); assay: PDE enzyme activity assay (HTRF cGMP), PDE9A; format: biochemical; details: recombinant enzyme; read-out: PDE9A inhibition (IC50)
T1 construct: they are full-length with N-terminal GST tag; GST (N); purchased BPS Biosciences 60090; host or cells: baculovirus infected Sf9 cells
T1 sequence (O76083 1-533 isoform O76083-2): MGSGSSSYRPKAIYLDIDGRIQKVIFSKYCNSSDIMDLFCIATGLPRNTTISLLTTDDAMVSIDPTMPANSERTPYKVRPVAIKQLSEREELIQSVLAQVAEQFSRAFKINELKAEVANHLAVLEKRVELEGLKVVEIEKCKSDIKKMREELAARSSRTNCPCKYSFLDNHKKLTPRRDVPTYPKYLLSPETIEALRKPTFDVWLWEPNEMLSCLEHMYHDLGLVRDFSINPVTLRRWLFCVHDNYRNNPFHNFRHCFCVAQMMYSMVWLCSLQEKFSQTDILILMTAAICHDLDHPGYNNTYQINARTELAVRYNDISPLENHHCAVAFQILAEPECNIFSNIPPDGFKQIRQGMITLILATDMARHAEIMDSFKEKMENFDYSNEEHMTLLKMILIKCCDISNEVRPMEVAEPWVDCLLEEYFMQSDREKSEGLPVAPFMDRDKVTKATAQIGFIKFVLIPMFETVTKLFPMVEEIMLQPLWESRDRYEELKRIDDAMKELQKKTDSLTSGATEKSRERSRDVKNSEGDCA

[1] = test system: acetylated histone 3 at Lys9 (AcH3K9); assay: HDAC activity using SHSY-5Y cell line (Western blot, histone 3 acetylation); format: cell-based, human; design: key: basal x1 means no increment (+); basal x1.4≤(++)<basal x2; basal x2≤(+++)<basal x3; basal x3≤(++++); N.E. means No Effect; details: SHSY-5Y cells, 24 hours, compound concentration 1 μM
Description: HDAC inhibition leads to the corresponding functional response, increase in AcH3 level. Therefore, the cellular assay to conclude HDAC activity was assessed by Western blot analysis using specific antibodies against acetylated histone 3 at Lys9 (AcH3K9). Cell cultures were treated at 100 nM, 500 nM, 1 μM and/or 5 μM with compounds of the invention or known PDE inhibitors during 24 hours and, Table 1 (below) describes the functional activity: histone 3 acetylation level (AcH3) vs basal (no treatment).
A human neuroblastoma cell line (SHSY-5Y) was used. Cell line was obtained from ATCC (CRL-2266) and cultured in 35 mm plates (Becton Dickinson, NJ).
The cells were grown to 90% confluence at 37° C. in an atmosphere of 5% CO2 and in Dulbecco's modified Eagle's medium supplemented with Glutamax (Gibco, Invitrogen, CA), 100 units/ml penicillin/streptomycin, 1×MEM nonessential amino acids and 10% fetal bovine serum (Gibco, Invitrogen, CA).
Cells were collected and sonicated in a buffer containing a cold lysis buffer with protease inhibitors (0.2 M NaCl, 0.1 M HEPES (4-(2-hydroxyethyl)-1-piperazineethanesulfonic acid), 10% glycerol, 200 mM NaF, 2 mM Na4P2O7, 5 mM EDTA (ethylenediaminetetraacetic acid), 1 mM EGTA (ethylene glycol tetraacetic acid), 2 mM DTT (dithiothreitol), 0.5 mM PMSF (phenylmethylsulfonyl fluoride), 1 mM Na3VO4 and Complete Protease Inhibitor Cocktail, Roche Diagnostics), centrifuged at 14,000×g 4° C. for 20 min and the supernatant was aliquoted and stored at −80° C. Total protein concentrations were determined using the BioRad Bradford protein assay (BioRad Laboratories).
Protein samples were mixed with Laemmli sample buffer, resolved onto Sodium Dodecyl Sulfate (SDS)-polyacrylamide gels and transferred to nitrocellulose membrane. The membranes were blocked with 5% milk, 0.05% Tween-20 in PBS (Phosphate-Buffered Saline) or TBS (Tris-Buffered Saline) followed by overnight incubation with the following primary antibodies: rabbit polyclonal anti-acetylated Histone 3 (acetyl K9) (Cell Signalling Technology), rabbit polyclonal anti-total Histone 3 (Millipore), in the corresponding buffer. All the antibodies were used at 1:1000 dilution except the mouse monoclonal anti-β-actin which was used at 1:50.000. Following two washes in TBS/Tween20 and one wash in TBS alone, immunolabeled protein bands were detected by using HRP-conjugated anti-rabbit or anti-mouse antibody (Santa Cruz Biotechnology; dilution 1:5.000) following an enhanced chemiluminescence system (ECL, GE Healthcare Bioscience, Buckinghamshire, UK), and autoradiographic exposure to HyperfilmtECL (GE Healthcare Bioscience). Quantity One™ software v.4.6.3 (Bio-Rad) was used for quantification.

[2] = test system: phosphorylated tau (p-Tau); assay: AD-related markers in Tg2576 neurons: pTau; format: cell-based, mouse; details: Mus musculus, Primary neuron, references, read-out: pTau EC50 (50% decrease in pTau levels over basal)
Description: The effects of the compounds on amyloid pathology were analysed in primary cultures after 21 days in-vitro (DIV) of neurons derived from the hippocampus and cortex of Tg2576 mouse embryos. Tg2576 mice express the human 695-aa isoform of APP (hAPP) containing the Swedish double mutation, which favours A3 production. Neurons were treated for two days and collected at day 3, 24 h after the last treatment. First it was analysed the effect of the compounds on hAPP processing by the amyloidogenic pathway by measuring the carboxyl terminal fragment AβPP (C99), which is the precursor of Aβ42. […]
It was next analyzed the effect of the compounds on levels of phosphorylated tau (p-Tau) in the same samples, another marker of AD, using a phospho-specific antibody (AT8) that recognizes hyperphosphorylated epitopes on Ser202/Thr205. […]
To analyze APP-derived fragments and p-Tau levels in primary neuronal cultures, cells were collected in a buffer containing SDS (2%), Tris-HCl (10 mM, pH 7.4), protease inhibitors (1 mM phenylmethylsulfonyl fluoride (PMSF) and Complete Protease Inhibitor Cocktail: Roche Diagnostics) and phosphatase inhibitors (0.1 mM Na3VO4 and 1 mM NaF). […] Aliquots of the supernatant were frozen at […] and their protein concentrations determined by the Bradford method using the Bio-Rad protein assay (Bio-Rad, Hercules, Calif., USA). […]

pCREB = assay: In-vivo pCREB in hippocampus of wild type mice; design: key: basal x1 means no increment (+); basal x1.4≤(++)<basal x2; basal x2≤(+++)<basal x3; basal x3≤(++++); N.E. means No Effect
Description: (§1) Another group of animals received the vehicle (1/1/8, v:v:v, DMSO/Tween 20/saline). One hour later, mice were sacrificed by cervical dislocation and their hippocampus was quickly dissected from the brains. Total tissue homogenates were obtained by homogenizing the hippocampus in a cold lysis buffer with protease inhibitors (0.2 M NaCl, 0.1 M HEPES, 10% glycerol, 200 mM NaF, 2 mM Na4P2O7, 5 mM EDTA, 1 mM EGTA, 2 mM DTT, 0.5 mM PMSF, 1 mM Na3VO4 and Complete Protease Inhibitor Cocktail, Roche Diagnostics). The homogenate was then centrifuged at 14,000×g at 4° C. for 20 min and the supernatant aliquoted and stored at −80° C. Total protein concentrations were determined using the BioRad Bradford protein assay (BioRad Laboratories). Protein samples were analyzed as described in the “in vitro” section.

AcH3 = assay: In-vivo AcH3 in hippocampus of wild type mice; design: key: basal x1 means no increment (+); basal x1.4≤(++)<basal x2; basal x2≤(+++)<basal x3; basal x3≤(++++); N.E. means No Effect
Description: as §1

pTau = assay: AD-related markers in Tg2576 mice: pTau; format: in vivo; details: hippocampal homogenates, footnote: single dose of 1 mg/Kg i.p.
PDE5A1 = molecular target: T2, PDE5A1 (Homo sapiens, UniProt O76074); assay: PDE enzyme activity assay (HTRF cGMP), PDE5A; format: biochemical; details: recombinant enzyme; read-out: PDE5A1 inhibition (IC50)
T2 construct: they are full-length with N-terminal GST tag; GST (N); purchased BPS Biosciences 60050; host or cells: baculovirus infected Sf9 cells

Row | Compound | IC50 (PDE9A) | AcH3: increment in Histone 3 acetylation level vs basal [1] | EC50 [2] | pCREB increment vs basal (pCREB; single dose of 1 mg/Kg i.p.) | AcH3 increment vs basal (AcH3; single dose of 1 mg/Kg i.p.) | pTau biological response vs basal (pTau) | IC50 (PDE5A1) | pCREB increment vs basal (pCREB; single dose of 12.5 mg/Kg i.p.) | AcH3 increment vs basal (AcH3; single dose of 12.5 mg/Kg i.p.)
1 | CN1CC(=O)N2[C@H](c3ccc4c(c3)OCO4)c3[nH]c4ccccc4c3C[C@@H]2C1=O [Tadalafil] | > 10 µM | N.E. | 0.01 to 1 µM | +++ (basal x2≤(+++)<basal x3) | N.E. | +++ (basal x2≤(+++)<basal x3) |  |  | 
2 | O=C(CCCCCCC(=O)Nc1ccccc1)NO [Vorinostat] | > 10 µM | ++++ (basal x3≤(++++)) |  |  |  |  | > 10 µM | N.E. | +++ (basal x2≤(+++)<basal x3)
